# Laboratory results as given in patent EP0655506B1 (priority 1994, dated 1995).
# Target: T1, Taq DNA polymerase (unmodified DNA polymerase from Thermus aquaticus) (Thermus aquaticus, UniProt P19821)
# T1 construct: to the gene that produces the full length Taq DNA polymerase; made in house
# Test: Gel electrophoresis-based rate of incorporation of dideoxynucleotides relative to deoxynucleotides, varying the ratio of dNTPs to ddNTPs (Example 7)
# Type: biochemical
# Details: 10 µM 4 dNTPs, ddNTP 100 to 2,000 µM; ddNTP:dNTP ratio giving fragments comparable to Taq DNA polymerase F667Y, multiplied by its Example 6 ratio
# Method: (§1) This example is similar to that described in Example 6. While it is the preferred test for DNA polymerases that discriminate strongly against the incorporation of dideoxynucleotides (e.g. T7 DNA polymerase Y526F, E. coli DNA polymerase I and Taq DNA polymerase), it also works well with DNA polymerases that efficiently incorporate ddNMPs (e.g. T7 DNA polymerase, E. coli DNA polymerase I mutant F762Y and Taq DNA polymerase mutant F667Y).
# (§2) The average length of a series of fragments is determined in one of two ways. […] The position of the front marking the appearance of visible radioactive bands is usually relatively sharp and readily observed by eye. However, it is also possible to determine such positions more precisely using the Phosphoimager to locate the position in each lane where a certain threshold of radioactivity per unit area occurs, starting at the top of the gel and moving down the gel.
# (§3) Some DNA polymerases discriminate very strongly against the incorporation of dideoxynucleotides, in which case it is difficult to add sufficient ddNTPs to the reaction to clearly detect the position of the largest dideoxy-terminated fragments on a denaturing polyacrylamide gel. For such DNA polymerases, one can use an alkaline agarose gel electrophoresis to compare the lengths of the dideoxy-terminated fragments in the different series.
# (§4) These tests were carried out using the six DNA polymerases described in Example 6. The reaction conditions were identical to that described in Example 6 except for the concentrations of dNTPs and ddNTPs. All reaction mixtures contained 10 µM 4 dNTPs. Each of the four ddNTP concentrations were varied by two-fold increments in the following ranges for the six DNA polymerases as follows: T7 DNA polymerase, E. coli DNA polymerase I F762Y, and Taq DNA polymerase F667Y , 0.02 µM to 1 µM, and T7 DNA polymerase Y526F, E. coli DNA polymerase I and Taq DNA polymerase, 100 to 2,000 µM. The reactions were carried out and the samples were analyzed by denaturing polyacrylamide gel electrophoresis as described in Example 6. Drying of the gel, autoradiography, and Phosphoimager analysis were as described in Example 6. The Table below summarizes the results from this experiment; the values shown for T7 DNA polymerase, E. coli DNA polymerase I F762Y, and Taq DNA polymerase F667Y are the absolute ratios obtained in Example 6 by statistical analysis of the rate of exponential decay in intensity of dideoxy-terminated fragments obtained using a 1:1 ratio of dNTPs to ddNTPs. […] This factor was multiplied by the absolute ratios obtained for T7 DNA polymerase, E. coli DNA polymerase I F762Y, and Taq DNA polymerase F667Y in Example 6 in order to obtain the values shown below for T7 DNA polymerase Y526F, E. coli DNA polymerase I and Taq DNA polymerase, respectively.
# T1 sequence (P19821 whole entry): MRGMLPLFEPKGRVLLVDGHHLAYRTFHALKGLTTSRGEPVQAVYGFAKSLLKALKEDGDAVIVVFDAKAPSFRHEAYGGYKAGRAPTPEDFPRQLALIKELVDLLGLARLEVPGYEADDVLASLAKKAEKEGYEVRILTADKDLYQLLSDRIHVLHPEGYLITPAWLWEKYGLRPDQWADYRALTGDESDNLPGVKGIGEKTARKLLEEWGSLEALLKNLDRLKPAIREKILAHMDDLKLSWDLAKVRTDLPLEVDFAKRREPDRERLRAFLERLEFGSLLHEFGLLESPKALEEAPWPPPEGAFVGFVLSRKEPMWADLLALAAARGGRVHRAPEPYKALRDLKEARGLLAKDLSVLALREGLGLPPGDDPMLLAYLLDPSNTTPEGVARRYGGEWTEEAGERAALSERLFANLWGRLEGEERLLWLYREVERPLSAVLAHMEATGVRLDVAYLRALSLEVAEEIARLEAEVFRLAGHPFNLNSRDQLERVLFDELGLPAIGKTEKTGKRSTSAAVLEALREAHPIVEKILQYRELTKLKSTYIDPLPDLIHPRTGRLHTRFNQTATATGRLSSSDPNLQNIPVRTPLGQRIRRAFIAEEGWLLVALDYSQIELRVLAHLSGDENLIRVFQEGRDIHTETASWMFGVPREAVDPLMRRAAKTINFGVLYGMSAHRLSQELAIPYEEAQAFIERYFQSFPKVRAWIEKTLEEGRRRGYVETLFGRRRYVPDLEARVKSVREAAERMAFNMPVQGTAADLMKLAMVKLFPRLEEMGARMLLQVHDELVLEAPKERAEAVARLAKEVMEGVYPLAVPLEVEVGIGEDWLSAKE
row,SMILES,Incorporation Rate Ratios (dN/ddN)
1,Nc1ncnc2c1ncn2[C@H]1CC[C@@H](COP(=O)(O)OP(=O)(O)OP(=O)(O)O)O1 [ddATP],"4,700"
2,Nc1ccn([C@H]2CC[C@@H](COP(=O)(O)OP(=O)(O)OP(=O)(O)O)O2)c(=O)n1 [ddCTP],"2,600"
3,Nc1nc2c(ncn2[C@H]2CC[C@@H](COP(=O)(O)OP(=O)(O)OP(=O)(O)O)O2)c(=O)[nH]1 [ddGTP],"1,400"
4,Cc1cn([C@H]2CC[C@@H](COP(=O)(O)OP(=O)(O)OP(=O)(O)O)O2)c(=O)[nH]c1=O [ddTTP],"4,500"

# Target: T2, E. coli DNA polymerase I (large fragment, Klenow fragment), wild type (Escherichia coli, UniProt P00582)
# T2 construct: The large fragment of E. coli DNA polymerase I, commonly called the Klenow fragment; made in house
# T2 sequence (P00582 324-928): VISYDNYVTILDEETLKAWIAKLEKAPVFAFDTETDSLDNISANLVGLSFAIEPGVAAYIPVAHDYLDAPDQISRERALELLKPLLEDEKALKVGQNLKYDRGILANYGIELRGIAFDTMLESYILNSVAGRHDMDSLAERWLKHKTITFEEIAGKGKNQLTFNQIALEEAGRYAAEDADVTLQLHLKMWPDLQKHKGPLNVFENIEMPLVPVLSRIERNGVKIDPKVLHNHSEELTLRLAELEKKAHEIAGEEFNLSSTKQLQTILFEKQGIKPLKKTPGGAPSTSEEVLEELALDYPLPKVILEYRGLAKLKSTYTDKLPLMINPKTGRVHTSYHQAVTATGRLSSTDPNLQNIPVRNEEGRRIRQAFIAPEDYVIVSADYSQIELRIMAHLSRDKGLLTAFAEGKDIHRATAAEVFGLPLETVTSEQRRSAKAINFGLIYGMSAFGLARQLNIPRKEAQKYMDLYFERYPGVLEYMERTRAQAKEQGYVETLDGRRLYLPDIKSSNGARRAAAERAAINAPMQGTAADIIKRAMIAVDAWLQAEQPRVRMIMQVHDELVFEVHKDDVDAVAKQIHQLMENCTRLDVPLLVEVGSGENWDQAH
# Test: as above
# Type: biochemical
# Details: 10 µM 4 dNTPs, ddNTP 100 to 2,000 µM; ddNTP:dNTP ratio giving fragments comparable to E. coli DNA polymerase I F762Y, multiplied by its Example 6 ratio
# Method: as §1, §2, §3, §4
row,SMILES,Incorporation Rate Ratios (dN/ddN)
1,Nc1ncnc2c1ncn2[C@H]1CC[C@@H](COP(=O)(O)OP(=O)(O)OP(=O)(O)O)O1 [ddATP],720
2,Nc1ccn([C@H]2CC[C@@H](COP(=O)(O)OP(=O)(O)OP(=O)(O)O)O2)c(=O)n1 [ddCTP],250
3,Nc1nc2c(ncn2[C@H]2CC[C@@H](COP(=O)(O)OP(=O)(O)OP(=O)(O)O)O2)c(=O)[nH]1 [ddGTP],140
4,Cc1cn([C@H]2CC[C@@H](COP(=O)(O)OP(=O)(O)OP(=O)(O)O)O2)c(=O)[nH]c1=O [ddTTP],"1,100"
